Measured values published in EP0452507A1, “MEDICINE COMPRISING TOCOPHERYL GLYCOSIDE AS ACTIVE INGREDIENT” (NIPPON HYPOX LABORATORIES INCORPORATED, priority 1989, dated 1991).

Test system: carrageenin-induced inflammation
Experiment: carrageenin-induced inflammation, right hind paw swelling by volumetry
Assay type: in vivo, rats
Details: Example 7, Fig. 6; for inhibition activity against carrageenin-induced inflammation: VIE-MAN 10, 30, 100 mg/kg, depending upon its dose, comparators 10 mg/kg, intraperitoneally
Description: Six groups each consisting of five male SD rats weighing 180 to 220 g were used (total 30 rats), and each rat was measured for a size of the subplantar region1 of the right hind paw.
In order to induce carrageenin-induced inflammation, 0.1 ml/rat of a physiological saline solution of 1 % X-carrageenin was prepared.
One out of the six groups was used as Control group. A physiological saline solution of 10 % Nikkol was administered intraperitoneally to each rat of this group, and 0.5 hours after the administration of the physiological saline solution of 10 % Nikkol, 0.1 ml of the physiological saline solution of 1 % X-carrageenin was administered intracutaneously into the subplantar region of the right hind paw of each rat. Then, 0.5, 1, 2, 3 and 4 hours after the administration of […] of the physiological saline solution of 1 % X-carrageenin, the swelling on the subplantar region of the right hind paw of each rat was measured by volumetry, arid the average of swelling ratios of the group in every measurement was determined on the basis of the measurement values of the sizes of subplantar regions of the right hind paws of the rats obtained before the administration of the physiological saline solution of 10 % Nikkol solution.
The procedure for Control group was repeated except that a physiological saline solution of 10 % Nikkol containing VIE-MAN in place of the physiological saline solution of 10 % Nikkol was administered intraperitoneally in such a dose that the amount of VIE-MAN was 10 mg/kg.
The procedure for Control group was repeated except that a physiological saline solution of 10 % Nikkol containing VIE-MAN in place of the physiological saline solution of 10 % Nikkol was administered intraperitoneally in such a dose that the amount of VIE-MAN was 30 mg/kg.
The procedure for Control group was repeated except that a physiological saline solution of 10 % Nikkol containing VIE-MAN in place of the physiological saline solution of 10 % Nikkol was administered intraperitoneally in such a dose that the amount of VIE-MAN was 100 mg/kg.
(§1) The procedure for Example groups ⑭, ⑮ and ⑯ was repeated except that a physiological saline solution of 10 % Nikkol containing cortisone acetate which was a steroidal anti-inflammatory preparation (immunosuppressive preparation) in place of the physiological saline solution of 10 % Nikkol containing VIE-MAN was administered intraperitoneally in such a dose that the amount of the cortisone acetate was 10 mg/kg.
as §1, with “indomethacin” for “cortisone acetate”, “nonsteroidal” for “steroidal”, “(antipyretic analgesic antiphlogistic” for “(immunosuppressive”

| SMILES | inhibition activity against carrageenin-induced inflammation | inhibition activity against carrageenin-induced inflammation compared with VIE-MAN (comparators 10 mg/kg intraperitoneally) | average of swelling ratios (10, 30 and 100 mg/kg intraperitoneally, 0.5 hour after administration of 1 % carrageenin solution, versus Control group) |
| --- | --- | --- | --- |
| COc1ccc2c(c1)c(CC(=O)O)c(C)n2C(=O)c1ccc(Cl)cc1 [indomethacin, reference compound] | significant activity at and after 0.5 hour | lower than that of VIE-MAN |  |
| Cc1c(C)c2c(c(C)c1OC1OC(CO)C(O)C(O)C1O)CCC(C)(CCCC(C)CCCC(C)CCCC(C)C)O2 (racemic) [VIE-MAN, dl-a-tocopheryl-a-D-mannoside] | excellent inhibition activity |  | significantly lower than that of swelling ratios of Control group |
